Results from article PMC8699473, “An Easily Expandable Multi-Drug LC-MS Assay for the Simultaneous Quantification of 57 Oral Antitumor Drugs in Human Plasma” (Cancers, 2021).

Key:
[1] = Short-term stability in spiked pooled human plasma (bench-top, 4 °C, 56 °C)
[2] = set-up: method as in supplement references [1-55] as printed per drug; conditions: minimum steady-state blood plasma concentration after multiple dose administration; ref supplement references [1-55] per drug; cited from earlier work
[3] = Autosampler stability of ready for injection samples; assay type: physicochemical, human
[4] = Freeze-thaw stability in spiked pooled human plasma; assay type: physicochemical
[5] = Long-term stability in spiked pooled human plasma

Which results are given for `C[C@H]1Oc2cc(cnc2N)-c2c(nn(C)c2C#N)CN(C)C(=O)c2ccc(F)cc21` [Lorlatinib]?
Short-time stability (1h, 56°C) Accuracy [%] ([1]; validation standard 2xLLOV): 60.0%; Short-time stability (24h, 4°C, without daylight) Accuracy [%] ([1]; validation standard 2xLLOV): 99.8%; Short-time stability (24h, RT, with daylight) Accuracy [%] ([1]; validation standard 2xLLOV): 98.9%; Short-time stability (24h, RT, without daylight) Accuracy [%] ([1]; validation standard 2xLLOV): 99.6%; Short-time stability (1h, 56°C) Accuracy [%] ([1]; validation standard LLOV): 54.3%; Short-time stability (24h, 4°C, without daylight) Accuracy [%] ([1]; validation standard LLOV): 98.8%; Short-time stability (24h, RT, with daylight) Accuracy [%] ([1]; validation standard LLOV): 96.4%; Short-time stability (24h, RT, without daylight) Accuracy [%] ([1]; validation standard LLOV): 97.8%; Short-time stability (1h, 56°C) Accuracy [%] ([1]; validation standard MOV): 57.8%; Short-time stability (24h, 4°C, without daylight) Accuracy [%] ([1]; validation standard MOV): 101.8%; Short-time stability (24h, RT, with daylight) Accuracy [%] ([1]; validation standard MOV): 100.2%; Short-time stability (24h, RT, without daylight) Accuracy [%] ([1]; validation standard MOV): 99.2%; Short-time stability (1h, 56°C) Accuracy [%] ([1]; validation standard ULOV): 50.7%; Short-time stability (24h, 4°C, without daylight) Accuracy [%] ([1]; validation standard ULOV): 97.0%; Short-time stability (24h, RT, with daylight) Accuracy [%] ([1]; validation standard ULOV): 100.4%; Short-time stability (24h, RT, without daylight) Accuracy [%] ([1]; validation standard ULOV): 99.9%; cmin [2]: 150 ng/mL; Autosampler (24h, 4°C) Accuracy [%] ([3]; validation standard 2xLLOV): 101.6%; Autosampler (72h, 4°C) Accuracy [%] ([3]; validation standard 2xLLOV): 99.0%; Autosampler (24h, 4°C) Accuracy [%] ([3]; validation standard LLOV): 96.7%; Autosampler (72h, 4°C) Accuracy [%] ([3]; validation standard LLOV): 94.8%; Autosampler (24h, 4°C) Accuracy [%] ([3]; validation standard MOV): 102.0%; Autosampler (72h, 4°C) Accuracy [%] ([3]; validation standard MOV): 100.8%; Autosampler (24h, 4°C) Accuracy [%] ([3]; validation standard ULOV): 99.7%; Autosampler (72h, 4°C) Accuracy [%] ([3]; validation standard ULOV): 99.2%; Freeze-Thaw Accuracy [%] ([4]; validation standard 2xLLOV): 95.0%; Freeze-Thaw Accuracy [%] ([4]; validation standard LLOV): 96.0%; Freeze-Thaw Accuracy [%] ([4]; validation standard MOV): 95.2%; Freeze-Thaw Accuracy [%] ([4]; validation standard ULOV): 97.6%; Long-term stability, 1 month, -20°C Accuracy [%] ([5]; validation standard 2xLLOV): 89.2%; Long-term stability, 1 month, -80°C Accuracy [%] ([5]; validation standard 2xLLOV): 84.9%; Long-term stability, 2 month, -20°C Accuracy [%] ([5]; validation standard 2xLLOV): 91.9%; Long-term stability, 2 month, -80°C Accuracy [%] ([5]; validation standard 2xLLOV): 91.9%; Long-term stability, 3 month, -20°C Accuracy [%] ([5]; validation standard 2xLLOV): 91.7%; Long-term stability, 3 month, -80°C Accuracy [%] ([5]; validation standard 2xLLOV): 90.8%; Long-term stability, 6 weeks, 4°C, without daylight Accuracy [%] ([5]; validation standard 2xLLOV): 96.7%; Long-term stability, 1 month, -20°C Accuracy [%] ([5]; validation standard LLOV): 87.9%; Long-term stability, 1 month, -80°C Accuracy [%] ([5]; validation standard LLOV): 82.6%; Long-term stability, 2 month, -20°C Accuracy [%] ([5]; validation standard LLOV): 90.0%; Long-term stability, 2 month, -80°C Accuracy [%] ([5]; validation standard LLOV): 87.6%; Long-term stability, 3 month, -20°C Accuracy [%] ([5]; validation standard LLOV): 95.7%; Long-term stability, 3 month, -80°C Accuracy [%] ([5]; validation standard LLOV): 93.2%; Long-term stability, 6 weeks, 4°C, without daylight Accuracy [%] ([5]; validation standard LLOV): 97.1%; Long-term stability, 1 month, -20°C Accuracy [%] ([5]; validation standard MOV): 88.5%; Long-term stability, 1 month, -80°C Accuracy [%] ([5]; validation standard MOV): 87.8%; Long-term stability, 2 month, -20°C Accuracy [%] ([5]; validation standard MOV): 93.9%; Long-term stability, 2 month, -80°C Accuracy [%] ([5]; validation standard MOV): 91.2%; Long-term stability, 3 month, -20°C Accuracy [%] ([5]; validation standard MOV): 90.9%; Long-term stability, 3 month, -80°C Accuracy [%] ([5]; validation standard MOV): 89.2%; Long-term stability, 6 weeks, 4°C, without daylight Accuracy [%] ([5]; validation standard MOV): 93.7%; Long-term stability, 1 month, -20°C Accuracy [%] ([5]; validation standard ULOV): 90.6%; Long-term stability, 1 month, -80°C Accuracy [%] ([5]; validation standard ULOV): 87.4%; Long-term stability, 2 month, -20°C Accuracy [%] ([5]; validation standard ULOV): 91.4%; Long-term stability, 2 month, -80°C Accuracy [%] ([5]; validation standard ULOV): 91.7%; Long-term stability, 3 month, -20°C Accuracy [%] ([5]; validation standard ULOV): 91.0%; Long-term stability, 3 month, -80°C Accuracy [%] ([5]; validation standard ULOV): 89.2%; Long-term stability, 6 weeks, 4°C, without daylight Accuracy [%] ([5]; validation standard ULOV): 91.4%
